Reference: patent US9499509B2, “Dihydrochalcone derivatives and their use as antibiotic agents” (UNIVERSITÉ DU QUÉBEC À CHICOUTIMI, priority 2012, dated 2016)
Like-named read-outs stand apart in the source and are kept apart here.

How the values were obtained:
Corynebacterium jeikeium = assay: Antibiotic assay (resazurin, Example 1), Corynebacterium jeikeium; assay type: cell-based; details: Coryne. jeikeium 14139
Procedure: (§1) Bacteria Strain. […] The MRSA were obtained as further described below.
(§2) Antibiotic agents. Cyprofloxacin and erythromycin were provided by Sigma-Aldrich. Gentamicin sulfate and vancomycin hydrochloride were provided by Calbiochem.
(§3) Five additional strains were tested: Streptococcus pneumoniae, Streptococcus agalactiae, Streptococcus pyogenes, Enterococcus faecalis and Corynebacterium jeikeium.

S. aureus = assay: Antibiotic assay (resazurin, Example 1), S. aureus strains of Table 3; assay type: cell-based, Staphylococcus aureus; details: for IC50: read-out: IC50
Excerpt: as §1, §2

[1] = test system: S. aureus wild type strain (ATCC 25923); assay: Antibiotic assay (resazurin, Example 1), S. aureus wild type; assay type: cell-based, Staphylococcus aureus
Procedure: as §1, §2
MRSA. Ten (10) strains of MRSA obtained as described above were tested along with an S. aureus wild type (WT) strain (ATCC25923).

Streptococcus pyogenes = assay: Antibiotic assay (resazurin, Example 1), Streptococcus pyogenes; assay type: cell-based; details: for IC50: read-out: IC50; for activity against Streptococcus pyogenes strain 14152: in words
Procedure: as §1, §2, §3

Streptococcus pneumoniae = assay: Antibiotic assay (resazurin, Example 1), Streptococcus pneumoniae; assay type: cell-based; details: for IC50: read-out: IC50
Procedure: as §1, §2, §3

WS-1 cell lines = assay: Cytotoxicity assay on WS-1 (Example 1)
Procedure: Cytotoxicity assay. The cytotoxicity assay was performed in 96-well plates (BD Falcon). The WS-1 cell lines were provided by ATCC. The WS-1 was cultured in DMEM+10% fetal calf serum. The cells were plated in a volume of 100 μL at a density of 5000 cells per well and incubated at 37° C.+5% CO2 for 24 h to promote cell adhesion.
The plates were incubated at 37° C.+5% CO2 for 48 h. The cells were then washed with 100 μL of HBSS and 150 μL of a 2% resazurin were added to the wells.
The therapeutic index is the ratio between the toxicity on normal cells, in this case fibroblast, and the toxicity on bacteria.

Enterococcus faecalis = assay: Antibiotic assay (resazurin, Example 1), Enterococcus faecalis; assay type: cell-based; details: for IC50: read-out: IC50; for activity against Enterococcus faecalis: in words
Procedure: as §1, §2, §3

Streptococcus agalactiae = assay: Antibiotic assay (resazurin, Example 1), Streptococcus agalactiae; assay type: cell-based; details: for IC50: read-out: IC50; for activity against Streptococcus agalactiae strain 14150: in words
Procedure: as §1, §2, §3

S. epidermidis = assay: Antibiotic assay (resazurin, Example 1), S. epidermidis strains; details: for activity on S. epidermidis compared with ciprofloxacin: in words
Procedure: The antibiotic assays were performed in 96-well plates (BD Falcon). The bacteria strains were inoculated in Nutrient Broth (BD) for the gram negative bacteria and Tryptic soy broth (BD) with 10% of defibrinated sheep blood (PML microbiological) for gram positive strain. All bacteria strains were dosed by spectrophotometry at 660 nm where 1 D.O=2×10^8 bacteria/mL. All bacteria were plated in their respective broth at a concentration of 450 000 bacteria/mL.
Compounds I, II and III were diluted in methanol and the above-noted antibiotic agents were diluted in water. The solvent concentration was 0.25%, which was not toxic for the bacteria. Compounds I, II and III and the above-noted antibiotic agents were tested at 8 different concentrations.
Each well contained: 100 μL of bacteria, 50 μL of the compounds tested (compound I, II, III or the above-noted antibiotic agent) and 50 μL of a 4% resazurin (Sigma) solution. The plates were incubated at 37° C. for 5 h. The fluorescence was read using a Fluoroskan Ascent™ FL (thermo) using an excitation wavelength of 530 nm and an emission wavelength of 590 nm.
Two different strains of Staphylococcus were tested, namely the S. epidermidis and the S. aureus strains.

[2] = S. aureus WT (ATCC 25923), read-out: IC50
[3] = Table 5, same values as IC50 of Table 2, read-out: S. aureus WT ATCC 25923 (toxicity on bacteria)

COc1ccc(CCC(=O)c2c(O)cc(O)c(C/C=C/c3ccc(O)cc3)c2O)cc1 [Compound II]
Minimum Inhibitory Concentration (MIC) (Corynebacterium jeikeium): (112) μM
Minimum Inhibitory Concentration (MIC) (S. aureus; S. aureus 14094): (6.2) μM
IC50 (S. aureus; S. aureus 14094): 3.5 ± 0.3 µM
Minimum Inhibitory Concentration (MIC) (S. aureus; S. aureus 14108): (6.81) μM
IC50 (S. aureus; S. aureus 14108): 3.3 ± 0.2 µM
Minimum Inhibitory Concentration (MIC) (S. aureus; S. aureus 14118): (5.05) μM
Minimum Inhibitory Concentration (MIC) (S. aureus; S. aureus 14154): (4.88) μM
IC50 (S. aureus; S. aureus 14154): 2 ± 0.1 µM
Minimum Inhibitory Concentration (MIC) ([1]; S. aureus WT (ATCC 25923)): (6.47) μM
IC50 [1, 2]: 2.7 ± 0.7 µM
IC50 [1, 3]: 2.7 ± 0.7 µM
Minimum Inhibitory Concentration (MIC) (Streptococcus pyogenes; Strep. pyogenes 14149): (>200) μM
IC50 (Streptococcus pyogenes; Strep. pyogenes 14149): > 200 µM
Minimum Inhibitory Concentration (MIC) (Streptococcus pyogenes; Strep. pyogenes 14152): (>200) μM
IC50 (Streptococcus pyogenes; Strep. pyogenes 14152): 90 ± 7 µM
activity against Streptococcus pyogenes strain 14152 (Streptococcus pyogenes): active
Minimum Inhibitory Concentration (MIC) (Streptococcus pneumoniae; Strep. pneumoniae 14070): (122) μM
IC50 (Streptococcus pneumoniae; Strep. pneumoniae 14070): 54 ± 4 µM
Minimum Inhibitory Concentration (MIC) (Streptococcus pneumoniae; Strep. pneumoniae 14112): (169) μM
IC50 (Streptococcus pneumoniae; Strep. pneumoniae 14112): 74 ± 6 µM
Minimum Inhibitory Concentration (MIC) (Streptococcus pneumoniae; Strep. pneumoniae 14138): (>200) μM
IC50 (Streptococcus pneumoniae; Strep. pneumoniae 14138): > 200 µM
Minimum Inhibitory Concentration (MIC) (Streptococcus pneumoniae; Strep. pneumoniae 14144): (>200) μM
IC50 (Streptococcus pneumoniae; Strep. pneumoniae 14144): > 200 µM
Minimum Inhibitory Concentration (MIC) (Streptococcus pneumoniae; Strep. pneumoniae 14148): (200) μM
IC50 (Streptococcus pneumoniae; Strep. pneumoniae 14148): 83 ± 7 µM
activity against Streptococcus pneumoniae 14070 strain (Streptococcus pneumoniae; in words): active
activity against Streptococcus pneumoniae strain 14144 (Streptococcus pneumoniae; in words): not active
WS-1 (toxicity on normal cells, fibroblast) (WS-1 cell lines; Table 5, WS-1, 48 h): 27 ± 4
Minimum Inhibitory Concentration (MIC) (Enterococcus faecalis; Ent. Faecalis 14078): (>200) μM
IC50 (Enterococcus faecalis; Ent. Faecalis 14078): > 200 µM
Minimum Inhibitory Concentration (MIC) (Enterococcus faecalis; Ent. Faecalis 14115): (>200) μM
IC50 (Enterococcus faecalis; Ent. Faecalis 14115): > 200 µM
activity against Enterococcus faecalis (Enterococcus faecalis): No activity
Minimum Inhibitory Concentration (MIC) (Streptococcus agalactiae; Strep. agalactiae 14150): (>200) μM
IC50 (Streptococcus agalactiae; Strep. agalactiae 14150): 169 ± 3 µM
Minimum Inhibitory Concentration (MIC) (Streptococcus agalactiae; Strep. agalactiae 14151): (>200) μM
IC50 (Streptococcus agalactiae; Strep. agalactiae 14151): > 200 µM
Minimum Inhibitory Concentration (MIC) (Streptococcus agalactiae; Strep. agalactiae 14153): (>200) μM
IC50 (Streptococcus agalactiae; Strep. agalactiae 14153): > 200 µM
activity against Streptococcus agalactiae strain 14150 (Streptococcus agalactiae): active
IC50 (S. epidermidis; S. epidermidis 14069): 5 ± 0.3 µM
Minimum Inhibitory Concentration (MIC) (S. epidermidis; S. epidermidis 14069): (12.7) μM
IC50 (S. epidermidis; S. epidermidis 14085): 4.4 ± 0.3 µM
Minimum Inhibitory Concentration (MIC) (S. epidermidis; S. epidermidis 14085): (14.3) μM
IC50 (S. epidermidis; S. epidermidis 14093): 7 ± 0.3 µM
Minimum Inhibitory Concentration (MIC) (S. epidermidis; S. epidermidis 14093): (11.2) μM
IC50 (S. epidermidis; S. epidermidis 14134): 3.8 ± 0.6 µM
Minimum Inhibitory Concentration (MIC) (S. epidermidis; S. epidermidis 14134): (13.5) μM
IC50 (S. epidermidis; S. epidermidis 14143): 5.8 ± 0.2 µM
Minimum Inhibitory Concentration (MIC) (S. epidermidis; S. epidermidis 14143): (10.9) μM
activity on S. epidermidis compared with ciprofloxacin (S. epidermidis): more active than ciprofloxacin

COc1cc(O)c(C(=O)CCc2ccc(O)cc2)c(O)c1C/C=C/c1ccc(O)cc1 [Compound I]
Minimum Inhibitory Concentration (MIC) (Corynebacterium jeikeium): (67.5) μM
IC50 (Corynebacterium jeikeium; read-out: IC50): 14 ± 3 µM
Minimum Inhibitory Concentration (MIC) (S. aureus; S. aureus 14094): (6.54) μM
IC50 (S. aureus; S. aureus 14094): 3.5 ± 0.3 µM
Minimum Inhibitory Concentration (MIC) (S. aureus; S. aureus 14108): (8.73) μM
IC50 (S. aureus; S. aureus 14108): 2.7 ± 0.3 µM
Minimum Inhibitory Concentration (MIC) (S. aureus; S. aureus 14118): (5.27) μM
IC50 (S. aureus; S. aureus 14118): 3.5 ± 0.1 µM
Minimum Inhibitory Concentration (MIC) (S. aureus; S. aureus 14154): (4.37) μM
IC50 (S. aureus; S. aureus 14154): 2.3 ± 0.1 µM
Minimum Inhibitory Concentration (MIC) ([1]; S. aureus WT (ATCC 25923)): (6.87) μM
IC50 [1, 2]: 2.8 ± 0.9 µM
IC50 [1, 3]: 2.8 ± 0.9 µM
Minimum Inhibitory Concentration (MIC) (Streptococcus pyogenes; Strep. pyogenes 14149): (200) μM
IC50 (Streptococcus pyogenes; Strep. pyogenes 14149): 118 µM
Minimum Inhibitory Concentration (MIC) (Streptococcus pyogenes; Strep. pyogenes 14152): (>200) μM
IC50 (Streptococcus pyogenes; Strep. pyogenes 14152): 44 ± 10 µM
activity against Streptococcus pyogenes strain 14152 (Streptococcus pyogenes): active
Minimum Inhibitory Concentration (MIC) (Streptococcus pneumoniae; Strep. pneumoniae 14070): (74.1) μM
IC50 (Streptococcus pneumoniae; Strep. pneumoniae 14070): 29 ± 5 µM
Minimum Inhibitory Concentration (MIC) (Streptococcus pneumoniae; Strep. pneumoniae 14112): (66.2) μM
IC50 (Streptococcus pneumoniae; Strep. pneumoniae 14112): 29 ± 3 µM
Minimum Inhibitory Concentration (MIC) (Streptococcus pneumoniae; Strep. pneumoniae 14138): (>200) μM
IC50 (Streptococcus pneumoniae; Strep. pneumoniae 14138): 142 ± 12 µM
Minimum Inhibitory Concentration (MIC) (Streptococcus pneumoniae; Strep. pneumoniae 14144): (>200) μM
IC50 (Streptococcus pneumoniae; Strep. pneumoniae 14144): > 200 µM
Minimum Inhibitory Concentration (MIC) (Streptococcus pneumoniae; Strep. pneumoniae 14148): (81.2) μM
IC50 (Streptococcus pneumoniae; Strep. pneumoniae 14148): 40 ± 4 µM
activity against Streptococcus pneumoniae 14070 strain (Streptococcus pneumoniae; in words): active
activity against Streptococcus pneumoniae strain 14112 (Streptococcus pneumoniae; in words): active
activity against Streptococcus pneumoniae strain 14138 (Streptococcus pneumoniae; in words): had an activity
activity against Streptococcus pneumoniae strain 14144 (Streptococcus pneumoniae; in words): not active
activity against Streptococcus pneumoniae strain 14148 (Streptococcus pneumoniae; in words): active
WS-1 (toxicity on normal cells, fibroblast) (WS-1 cell lines): 49 ± 9
Minimum Inhibitory Concentration (MIC) (Enterococcus faecalis; Ent. Faecalis 14078): (>200) μM
IC50 (Enterococcus faecalis; Ent. Faecalis 14078): > 200 µM
Minimum Inhibitory Concentration (MIC) (Enterococcus faecalis; Ent. Faecalis 14115): (>200) μM
IC50 (Enterococcus faecalis; Ent. Faecalis 14115): > 200 µM
activity against Enterococcus faecalis (Enterococcus faecalis): No activity
Minimum Inhibitory Concentration (MIC) (Streptococcus agalactiae; Strep. agalactiae 14150): (200) μM
IC50 (Streptococcus agalactiae; Strep. agalactiae 14150): 144 ± 2 µM
Minimum Inhibitory Concentration (MIC) (Streptococcus agalactiae; Strep. agalactiae 14151): (>200) μM
IC50 (Streptococcus agalactiae; Strep. agalactiae 14151): 198 ± 3 µM
Minimum Inhibitory Concentration (MIC) (Streptococcus agalactiae; Strep. agalactiae 14153): (>200) μM
IC50 (Streptococcus agalactiae; Strep. agalactiae 14153): 174 ± 3 µM
activity against Streptococcus agalactiae strain 14150 (Streptococcus agalactiae): active
IC50 (S. epidermidis; S. epidermidis 14069): 5.3 ± 0.2 µM
Minimum Inhibitory Concentration (MIC) (S. epidermidis; S. epidermidis 14069): (19.9) μM
IC50 (S. epidermidis; S. epidermidis 14085): 4.5 ± 0.3 µM
Minimum Inhibitory Concentration (MIC) (S. epidermidis; S. epidermidis 14085): (23.5) μM
IC50 (S. epidermidis; S. epidermidis 14093): 8.6 ± 0.6 µM
Minimum Inhibitory Concentration (MIC) (S. epidermidis; S. epidermidis 14093): (11.6) μM
IC50 (S. epidermidis; S. epidermidis 14134): 3.7 ± 0.4 µM
Minimum Inhibitory Concentration (MIC) (S. epidermidis; S. epidermidis 14134): (19) μM
IC50 (S. epidermidis; S. epidermidis 14143): 6.7 ± 0.3 µM
Minimum Inhibitory Concentration (MIC) (S. epidermidis; S. epidermidis 14143): (15.2) μM
activity on S. epidermidis compared with ciprofloxacin (S. epidermidis): more active than ciprofloxacin
